The record followed here is PMC11035632, “Discovery of gefitinib-1,2,3-triazole derivatives against lung cancer via inducing apoptosis and inhibiting the colony formation” (Scientific Reports, 2024).

One series relates to NCI-H1299 cells. As to the kind of experiment: CCK-8 assay for cell proliferation and cytotoxicity, NCI-H1299. It is filed as cell-based. To be noted: Homo sapiens, CCK-8, 48 h. How it is done: (§1) Three types of lung cells were seeded into 96-well plate at a density of 5 × 10^3 cells per well at logarithmic growth phase and cultured in 37 °C. […] After that, cell viability was determined according to the instruction of the CCK-8 assay. Next, 10 μL of CCK-8 solution was added to each well of the plate and incubate the plate for 1–4 h in the incubator. The absorbance was measured at 450 nm using a microplate reader (Bio-Tek). The percentage of viable cells was measured using the following formula where three independent experiments were performed: [(A450 sample − A450blank)/(A450 control − A450blank)] × 100%.
A general note: Tetrazolium assays rely on reduction of a dye to a coloured formazan, in cell work by metabolically active cells.

For another series, the system named is A549 cells. The series is described as follows: CCK-8 assay for cell proliferation and cytotoxicity, A549. It is filed as cell-based. The note with it: Homo sapiens, CCK-8, 48 h. As for the experimental part:
A549 cells were cultured in a humidified incubator at 37 °C with 5% CO2 in Ham’s F-12 K (PM150910, Procell) supplemented with 10% FBS and 1% Penicillin Streptomycin.
as §1

A further series deals with NCI-H1437 cells. The series is described as follows: CCK-8 assay for cell proliferation and cytotoxicity, NCI-H1437. It is filed as cell-based. To be noted: Homo sapiens, CCK-8, 48 h, read-out: IC50 1437. How it is done:
as §1

A further series concerns L02 cells. The series is described as follows: Cytotoxicity / survival rate in normal hepatocytes L02. It is filed as cell-based. The note with it: for Survival rate %, 48 h: L02 cells.
Series [1] relates to H1299 cells. The series is described as follows: DAPI staining for cell apoptosis. The note with it: H1299, 2, 4 and 8 μmol/L, 48 h. It is filed as cell-based, human. As for the experimental part:
In order to further verify the apoptotic activity induced by 7a and 7j in lung cancer cells, H1299 cells were treated with different concentrations of compounds 7a and 7j for 48 h, followed by DAPI staining. […] As the drug concentration increased, nuclear staining intensified, and even nuclear condensation and fragmentation phenomena were observed.
H1299 (1.5 × 10^4 ~ 2 × 10^4 /well) cells were seeded in 24-well plates for 24 h, and then treated with 7a or 7j at the concentrations of 2,4 and 8 μmol/L for 48 h., the cells were fixed for 30 min at room temperature in 4% paraformaldehyde and washed 3 times in PBS. Finally, every well was stained with DAPI (10 µg/mL, C0065, Solarbio) at room temperature for 30 min, and washed at least three times in PBS. The fluorescence microscope was used to observe the morphological changes of cell nuclei.

For series [2], the system named is H1299 cells. As to the kind of experiment: Colony formation assay. It is filed as cell-based, human. The note with it: 7 days. From the text:
The colony formation assay is an important method for evaluating the ability of adherent cells to proliferate and form colonies on a plate, and it is widely used to assess cell proliferation. We also employed the colony formation assay to further confirm that compounds 7a and 7j can inhibit the proliferation of lung cancer cells, as shown in Fig. 5. After treating lung cancer cells with low, medium, and high concentrations (1, 2, 4 μmol/L) of compounds for 7 days, the number of cell colonies was counted to analyze the proliferation inhibition rate.
H1299 cells were seeded in six-well plates at a density of 500 cells per well and treated with 7a or 7j (1, 2 and 4 μmol/L) for 7 days. Then, cells were per-fixed with 4% paraformaldehyde for 30 min, stained with 0.1% Crystal violet for 15 min, and then washed with pure water. Taking a picture after the plates were air-dry. The clone formations number was counted with Image J.

Series [3] concerns Bcl-2, caspase9, Cleaved-Caspase3, Cleaved-PARP, MMP9 in H1299 cells. As to the kind of experiment: Western blot of apoptosis- and migration-related proteins. It is filed as cell-based, human. The note with it: H1299, 4, 8 or 16 μM, 48 h. From the text:
We conducted an in-depth investigation into the mechanism of apoptosis induced by compounds 7a and 7j. The Bcl-2 protein family is located upstream of the apoptosis signaling pathway. Bcl-2 proteins play an anti-apoptotic role by inhibiting the release of cytochrome C (cyt-c) from mitochondria. Previous literature reports that many anticancer drugs induce apoptosis by downregulating Bcl-2 expression. During apoptosis, the expression of Bcl-2 is inhibited, cyt-c is released, and it binds with the apoptotic protease activation factor to form the apoptosome. This triggers a cascade reaction of Caspase family proteins, with apoptosome promoting the activation of Caspase9. Activated Caspase9 then activates Caspase3, forming the Caspase3 cleavage body, which further activates downstream PARP protein, ultimately promoting cell apoptosis. […] After treating H1299 cells with different concentrations of compounds for 48 h, cell proteins were extracted, and western blot was used to detect the expression changes of apoptosis-related proteins.
Firstly, H1299 cells were treated with different concentrations concentrations of 7a and 7j at 4, 8 and 16 μmol/L for 48 h, cells were harvested using RIPA lysate (R0010, Solarbio) and centrifuged at 12,000 rpm for 15 min at 4 °C, and then the concentration of total protein was measured and taken from the supernatant. Protein was separated by 12% SDS–polyacrylamide gel electrophoresis and transferred to nitrocellulose filter membrane. after blocking in 5% milk for 2 h, the membranes were incubated with specific primary antibody at 4 °C overnight. Next day, NC membranes were incubated for 1 h at room temperature with appropriate secondary antibodies, and then Protein bands was visualizing by chemiluminescence detection (ECL kit, Genview).

In the next series the test system is Kunming mice. The series is described as follows: Acute oral toxicity test in mice. To be noted: mouse, in vivo. From the text:
SPF-grade healthy Kunming mice (weighing 20 ± 2 g) were purchased from Henan Skibbes Bio-technology Co., Ltd (Licence No.: SCXK (Yu) 2020–0005). The mice were provided free access to drinking water and adaptive feeding for 7 days.
Twenty Kunming mice (half male and half female) were randomly allocate into 4 groups: 7a-treated group (male), 7a-treated group (female), control group (male) and control group (female). The control groups were given PBS intragastric administration, while the 7a groups were given the 7a solution (400 mg/kg, respectively), once a day for 2 consecutive days. Body weight and appearance were monitored for a total period of 12 days (from the first day after treating with 7a). The mice were killed by cervical dislocation on the 12th day, and blood samples were collected for the biochemistry test. Then, we measured liver and kidney function indicators such as alanine aminotransferase (ALT), aspartate aminotransferase (AST), serum creatinine (CRE) and blood urea nitrogen (BUN) (Nanjing Jiancheng Bioengineering Institute, China). The organs (brain, heart, liver, spleen, lungs, kidneys stomach) were harvested, and fixed in 10% formaldehyde and paraffin-embedded for histological examination. Finally, these sections were stained with haematoxylin and eosin for light microscopic examination.

The term IC50 denotes the concentration that gives 50% inhibition. Consider `COc1cc2ncnc(Nc3cccc(-c4cn(Cc5cc(F)ccc5Br)nn4)c3)c2cc1OCCCN1CCOCC1` [Compound 7a], for which the concentration for half-maximal inhibition (IC50) with NCI-H1299 cells is 3.94 ± 0.17 µM; in the series on A549 cells, 3.16 ± 0.11 µM; in the series on NCI-H1437 cells, 1.83 ± 0.13 µM; in the series with L02 cells (Homo sapiens, normal hepatocytes L02) it was 18.9 ± 1.03 µM. Also, the “Survival rate %, 48 h” value in the series with L02 cells (2 μM) worked out at 95.37 ± 2.98%; with L02 cells (4 μM), 71.97 ± 2.33%; in the series on L02 cells (8 μM), 66.89 ± 1.52%; in the series with L02 cells (16 μM), 63.25 ± 1.25%; with L02 cells (32 μM), 32.43 ± 0.95%. The “apoptotic morphology by DAPI staining” value in the series with H1299 cells [1] was “exhibited typical apoptotic features”. Also, the “formation of H1299 cell colonies” value in the series on H1299 cells [2] (1 μmol/L) is listed as “markedly inhibit”. For the same compound, in the series on H1299 cells [2] (H1299, 4 μmol/L), the colony formation result is reported as “almost completely suppressed”. Moreover, the “Bcl-2 protein expression level” value in series [3] is on record as “decrease”. The “Cleaved-Caspase3 protein expression level” value in series [3] was “increased”. In addition, in series [3], the “Cleaved-PARP protein expression level” value is listed as “increased”. The MMP9 protein expression entry in series [3] is “downregulated”. Moreover, the “caspase9 protein expression level” value in series [3] was “decrease”. Moreover, the “acute toxicity in mice” value in the series on Kunming mice was “low toxicity”.
